Results as given in ChEMBL document CHEMBL1201862, “PubChem BioAssay data set” (2004).
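Tested at 5 concentrations; 48 h exposure; 96-well plates; endpoints linearly interpolated, else capped at highest concentration. GI50: concentration for 50% inhibition of growth.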 Calls of active or inactive are those of the source. Rule as the data show it: active = GI50 up to about 1.1 µM and inactive = higher.

Legend:
Test in all cases: NCI tumour cell line growth inhibition, 48 h
HOP-62 = system: HOP-62
OVCAR-4 = system: OVCAR-4
SNB-19 = system: SNB-19
KM12 = system: KM12
HL-60 = system: HL-60
SW-620 = system: SW-620
NCI-H226 = system: NCI-H226
SK-OV-3 = system: SK-OV-3
Malme-3M = system: Malme-3M
NCI-H522 = system: NCI-H522
NCI-H23 = system: NCI-H23
SK-MEL-5 = system: SK-MEL-5
SF-295 = system: SF-295
SR = system: SR
MDA-MB-231 = system: MDA-MB-231
TK-10 = system: TK-10
UACC-62 = system: UACC-62
DU-145 = system: DU-145
CCRF-CEM = system: CCRF-CEM
M14 = system: M14
HCT-116 = system: HCT-116
IGROV-1 = system: IGROV-1
U-251 = system: U-251
BT-549 = system: BT-549
RXF 393 = system: RXF 393
T47D = system: T47D
SF-268 = system: SF-268
SF-539 = system: SF-539
EKVX = system: EKVX
SK-MEL-28 = system: SK-MEL-28
K562 = system: K562
OVCAR-3 = system: OVCAR-3
SN12C = system: SN12C
MCF7 = system: MCF7
OVCAR-5 = system: OVCAR-5
OVCAR-8 = system: OVCAR-8
A498 = system: A498
NCI-H460 = system: NCI-H460
LOX IMVI = system: LOX IMVI
HCC 2998 = system: HCC 2998
SK-MEL-2 = system: SK-MEL-2
A549 = system: A549
HCT-15 = system: HCT-15
UACC-257 = system: UACC-257
786-0 = system: 786-0
SNB-75 = system: SNB-75
HOP-92 = system: HOP-92
ACHN = system: ACHN
MOLT-4 = system: MOLT-4
HT-29 = system: HT-29
COLO 205 = system: COLO 205
UO-31 = system: UO-31
Hs-578T = system: Hs-578T
CAKI-1 = system: CAKI-1
MDA-MB-435 = system: MDA-MB-435
PC-3 = system: PC-3
NCI/ADR-RES = system: NCI/ADR-RES
RPMI-8226 = system: RPMI-8226
MDA-N = system: MDA-N

SMILES: N=C(N)N/N=C/c1c(-c2ccc(Cl)c([N+](=O)[O-])c2)nc2sccn12
- GI50 (HOP-62): 1.85 µM (inactive)
- GI50 (OVCAR-4): 1.79 µM (inactive)
- GI50 (SNB-19): 1.31 µM (inactive)
- GI50 (KM12): 0.861 µM (active)
- GI50 (HL-60): 1.96 µM (inactive)
- GI50 (SW-620): 1.53 µM (inactive)
- GI50 (NCI-H226): 1.92 µM (inactive)
- GI50 (SK-OV-3): 1.78 µM (inactive)
- GI50 (Malme-3M): 1.91 µM (inactive)
- GI50 (NCI-H522): 2.01 µM (inactive)
- GI50 (NCI-H23): 1.85 µM (inactive)
- GI50 (SK-MEL-5): 1.73 µM (inactive)
- GI50 (SF-295): 1.75 µM (inactive)
- GI50 (SR): 2.05 µM (inactive)
- GI50 (MDA-MB-231): 1.74 µM (inactive)
- GI50 (TK-10): 1.76 µM (inactive)
- GI50 (UACC-62): 1.8 µM (inactive)
- GI50 (DU-145): 1.78 µM (inactive)
- GI50 (CCRF-CEM): 1.41 µM (inactive)
- GI50 (M14): 1.8 µM (inactive)
- GI50 (HCT-116): 1.37 µM (inactive)
- GI50 (IGROV-1): 1.72 µM (inactive)
- GI50 (U-251): 1.67 µM (inactive)
- GI50 (BT-549): 1.89 µM (inactive)
- GI50 (RXF 393): 1.22 µM (inactive)
- GI50 (T47D): 0.493 µM (active)
- GI50 (SF-268): 1.92 µM (inactive)
- GI50 (SF-539): 1.82 µM (inactive)
- GI50 (EKVX): 1.85 µM (inactive)
- GI50 (SK-MEL-28): 4.08 µM (inactive)
- GI50 (K562): 0.845 µM (active)
- GI50 (OVCAR-3): 1.34 µM (inactive)
- GI50 (SN12C): 1.82 µM (inactive)
- GI50 (MCF7): 1.37 µM (inactive)
- GI50 (OVCAR-5): 1.71 µM (inactive)
- GI50 (OVCAR-8): 2.11 µM (inactive)
- GI50 (A498): 1.72 µM (inactive)
- GI50 (NCI-H460): 1.79 µM (inactive)
- GI50 (LOX IMVI): 2.22 µM (inactive)
- GI50 (HCC 2998): 1.6 µM (inactive)
- GI50 (SK-MEL-2): 1.85 µM (inactive)
- GI50 (A549): 1.75 µM (inactive)
- GI50 (HCT-15): 2.21 µM
- GI50 (UACC-257): 1.91 µM (inactive)
- GI50 (786-0): 1.73 µM (inactive)
- GI50 (SNB-75): 1.62 µM (inactive)
- GI50 (HOP-92): 1.87 µM (inactive)
- GI50 (ACHN): 1.71 µM (inactive)
- GI50 (MOLT-4): 1.71 µM (inactive)
- GI50 (HT-29): 1.52 µM (inactive)
- GI50 (COLO 205): 1.31 µM (inactive)
- GI50 (UO-31): 1.85 µM (inactive)
- GI50 (Hs-578T): 2.05 µM (inactive)
- GI50 (CAKI-1): 1.69 µM (inactive)
- GI50 (MDA-MB-435): 0.6 µM (active)
- GI50 (PC-3): 1.65 µM (inactive)
- GI50 (NCI/ADR-RES): > 100 µM (inactive)
- GI50 (RPMI-8226): 2.06 µM (inactive)

SMILES: CCCNc1c(Cl)cc(Cl)c2[nH]c3ccccc3c(=O)c12
- GI50 (HOP-62): 56.1 µM (inactive)
- GI50 (OVCAR-4): > 100 µM (inactive)
- GI50 (SNB-19): 18.4 µM (inactive)
- GI50 (KM12): 27.2 µM (inactive)
- GI50 (HL-60): 16.2 µM (inactive)
- GI50 (SW-620): 88.5 µM (inactive)
- GI50 (NCI-H226): 38.2 µM (inactive)
- GI50 (SK-OV-3): 75.9 µM (inactive)
- GI50 (Malme-3M): 43.3 µM (inactive)
- GI50 (NCI-H522): 37.1 µM (inactive)
- GI50 (NCI-H23): 27.7 µM (inactive)
- GI50 (SK-MEL-5): 32.7 µM (inactive)
- GI50 (SF-295): 34.8 µM (inactive)
- GI50 (SR): 58.3 µM (inactive)
- GI50 (MDA-MB-231): 77.1 µM (inactive)
- GI50 (TK-10): 51.3 µM (inactive)
- GI50 (UACC-62): 45.5 µM (inactive)
- GI50 (CCRF-CEM): 49.3 µM (inactive)
- GI50 (M14): 55.7 µM (inactive)
- GI50 (HCT-116): 43.6 µM (inactive)
- GI50 (IGROV-1): 24.5 µM (inactive)
- GI50 (U-251): 37.1 µM (inactive)
- GI50 (BT-549): 75.3 µM (inactive)
- GI50 (T47D): > 100 µM (inactive)
- GI50 (SF-539): 32.4 µM (inactive)
- GI50 (EKVX): 35.6 µM (inactive)
- GI50 (SK-MEL-28): > 100 µM (inactive)
- GI50 (K562): 28.3 µM (inactive)
- GI50 (OVCAR-3): 48.2 µM (inactive)
- GI50 (SN12C): 95.9 µM (inactive)
- GI50 (MCF7): 28.4 µM (inactive)
- GI50 (OVCAR-5): > 100 µM (inactive)
- GI50 (OVCAR-8): 40.3 µM (inactive)
- GI50 (A498): 29.7 µM (inactive)
- GI50 (MDA-N): 50.6 µM (inactive)
- GI50 (LOX IMVI): 33.7 µM (inactive)
- GI50 (HCC 2998): 41.3 µM (inactive)
- GI50 (SK-MEL-2): 39.9 µM (inactive)
- GI50 (A549): 35.1 µM (inactive)
- GI50 (HCT-15): 98.6 µM
- GI50 (UACC-257): 48.3 µM (inactive)
- GI50 (786-0): 30.2 µM (inactive)
- GI50 (SNB-75): 31.5 µM (inactive)
- GI50 (HOP-92): 3.42 µM (inactive)
- GI50 (ACHN): 24 µM (inactive)
- GI50 (MOLT-4): 32.5 µM (inactive)
- GI50 (HT-29): 22.5 µM (inactive)
- GI50 (COLO 205): 42 µM (inactive)
- GI50 (UO-31): 32.1 µM (inactive)
- GI50 (CAKI-1): 62.5 µM (inactive)
- GI50 (MDA-MB-435): 39.9 µM (inactive)
- GI50 (PC-3): 37.1 µM (inactive)
- GI50 (NCI/ADR-RES): > 100 µM (inactive)
- GI50 (RPMI-8226): 30.8 µM (inactive)
